Data on two compounds can be found in US20240238232A1, “COMPOSITIONS AND METHODS FOR THE REDUCTION OR TREATMENT OF INSULIN RESISTANCE AND METABOLIC CONDITIONS” (AXCELLA HEALTH INC., priority 2018, published 2024).

Each structure is given as a SMILES string. “And” between values parts separate entries of the source, which are not always exact repeats. Equal entries are not always repeated. Structures can show the parent of a compound that is named as a salt. Marks after values point to notes of the source that are not given here.

The test system of one assay is ob/ob mice; C57/BL6. Particulars: cited from earlier work.
Assay [1] has as its system B6.Cg-Lep^ob/J (ob/ob) mouse model. The assay is described as follows: Oral glucose tolerance test (OGTT) in ob/ob mice, Example 1. It is filed as in vivo. To be noted: for Blood glucose levels raw data: individual ob/ob mice, OGTT, metformin 450 mg/kg, hydrochloride; for Mean blood glucose level: ob/ob mice OGTT Day 3, metformin hydrochloride 450 mg/kg QD PO. As to the method:
Amino Acid Composition A-1 and metformin were tested for their ability to affect glucose tolerance in a genetically obese B6.Cg-Lep^ob/J (ob/ob) mouse model (Maida A, et al., 2010, PMID: 20972533).
Eight-week-old male ob/ob mice were subjected to treatment of test articles (Amino Acid Composition A-1 and metformin) followed by oral glucose tolerance test (OGTT) on Day 3. Mice were randomized by body weight and unfasted blood glucose on Day −1. Body weight was recorded daily in the morning before AM dosing on Day 1, Day 2, and Day 3. Test articles were dosed by oral gavage at 10 ml/kg. Dosage of a test article was calculated based on daily body weight. Treatment schedule and dose are listed in the following section (Table 34). AM doses were administered at 0700, and PM doses were administered at 1800. Oral glucose tolerance test (OGTT) was performed after 6-hour fasting on Day 3.
Mice were fasted for 6 hours prior to OGTT test. Food was removed at 0700 hours on Day 3; water was provided during fasting. Blood samples were collected from tail snip or facial puncture at −30 min (relative to OGTT) into K2EDTA tubes for baseline glucose and blood biochemistry (insulin, triglyceride, and cholesterol). Blood glucose was measured by a glucometer (SDI StatStrip Xpress or equivalent). Plasma was collected in K2EDTA and saved at −80° C.
Mice were bled for baseline glucose and plasma at −30 min. Test articles were then dosed by oral gavage at −30 min. Glucose was administered per os (P.O.) at a dosage of 2.0 g/kg body weight. Blood glucose levels were measured at 0 min immediately prior to glucose injection and then at 15, 30, 60, 120 and 240 minutes thereafter (shown as 0.25, 0.5, 1, 2, and 4 hours in Table 35 below).
Data are mean±standard deviation (stdev). (p values by Dunnett's multiple comparisons: **p<0.005 compared to vehicle control; ***p<0.001 compared to vehicle control; ****p<0.0005 compared to vehicle control.)

Assay [2] shares this test system. Described as above. It is filed as in vivo. Particulars: timepoint −1 hours.
Another assay relates to Human CCL2 (MCP-1). The assay is described as follows: MCP1/CCL2 secretion in primary human hepatocytes (FFA + TNFα, ELISA after 24 h). It is filed as cell-based. Particulars: for MCP1 expression relative to Control, Mean: baseline subtracted. Here is the method:
Hepatocyte lipotoxicity appears to be a central driver of hepatic cellular injury via oxidative stress and endoplasmic reticulum (ER) stress. The ability of amino acids to influence steatosis (lipid accumulation) and inflammation in hepatocytes was assessed using human primary hepatocytes (Lonza, TRL).
Primary hepatocytes lot nos. from two healthy human donors were seeded on day 0 at density of 6e04 cells in 96 well optical microplates (Thermofisher) in hepatocyte plating media (William's E medium (Gibco) supplemented with 10% heat-inactivated FBS (Atlanta Bio), 2 mM Glutamax (Gibco), and 0.2% Primocin (InVivoGen) and incubated for 6 hours at 37° C., 5% CO2. After 6 hours, cells were washed twice and incubated overnight at 37° C., 5% CO2 with Hepatocytes defined medium (Corning) supplemented with 2 mM Glutamax (Gibco), and 1×Penicillin/Streptomycin. On day 1, cells were washed twice and incubated for 24 h in the hepatocyte culture media in the same conditions described above.
On day 2, cells were washed twice with DPBS 1 X (Gibco) and maintained in amino acid-free WEM (US Biologicals) containing a defined custom amino acid concentration based on the mean physiological concentrations in blood. The values are published in the Human Metabolome Database (Wishart D S, Tzur D, Knox C, et al., HMDB: the Human Metabolome Database. Nucleic Acids Res. 2007 January; 35 (Database issue): D521-6. 17202168; which is hereby incorporated by reference in its entirety). This custom media is supplemented with 11 mM Glucose, 0.272 mM Sodium Pyruvate, and a dose curve of defined amino acid compositions (i.e., vehicle, LIVRQ+N-acetylcysteine, LIVRQ, RQ+N-acetylcysteine, N-acetylcysteine alone, LIV, or individually with L-Leucine, L-Isoleucine, L-Valine, L-Arginine, L-Glutamine, and L-Cysteine) at various ranges of concentrations. Cells were maintained in this defined media for 24 hours at 37° C., 5% CO2.
Co-treatment with free fatty acids and different amino acids combination After pre-treatment, cells were exposed to free fatty acids (FFA) at 250 uM with a ratio of 2:1 (Oleate: Palmitate) supplemented with TNF-α (Thermofisher) at 1 ng/ml or vehicle. Cells were incubated with the FFAs mixture and the different amino acids combinations for 24 hours at 37° C., 5% CO2. After 24 hours incubation, media was removed for cytokine analysis and replaced by fresh media containing the same stimulus conditions and amino acid concentrations. Cells were incubated for an additional 48 hours for a total of 72 hours of FFA and TNFα stimulation.
Human CCL2 (MCP-1) was measured by ELISA (Human […] DuoSet ELISA, R&D Systems) at ⅕ or 1/10 dilution in 1 X Reagent Diluent (Reagent Ancillary Kit 2, R&D Systems). Data were normalized to the specific per well cell density determined by nuclei count stained by Hoechst 3342 (Life technologies) in the fluorescence microscopy described below.
MCP1 CCL2 Secretion Tables 56-59 show the baseline subtracted secretion of MCP1/CCL2 in primary human hepatocytes cells from two healthy donors (donor 1 for Tables 56 and 57, and donor 2 for Tables 58 and 59).
(An ELISA detects its analyte on a solid surface through an enzyme-linked reagent.)

In the case of `CN(C)C(=N)N=C(N)N` [Metformin, Metformin hydrochloride], the “Glucose tolerance (OGTT)” value with ob/ob mice; C57/BL6 (C57/BL6, single dose) is “improves glucose tolerance”. Also, the Plasma glucose entry in the assay with ob/ob mice; C57/BL6 (ob/ob mice (Cool B, et al., 2006)) was “lowers plasma glucose”. Besides, the NAFLD entry in the assay with ob/ob mice; C57/BL6 (ob/ob mice (Lin H Z et al., 2000; Cool B, et al., 2006)) is on record as “reverses NAFLD”. Further, the “Blood glucose levels raw data” value was 274 mg/dL and 234 mg/dL and 220 mg/dL and 129 mg/dL and 140 mg/dL in assay [1] (timepoint 0 hours); 387 mg/dL and 397 mg/dL and 427 mg/dL and 310 mg/dL and 247 mg/dL in assay [1] (timepoint 0.25 hours); 462 mg/dL and 439 mg/dL and 482 mg/dL and 307 mg/dL and 261 mg/dL in assay [1] (timepoint 0.5 hours); 365 mg/dL and 399 mg/dL and 431 mg/dL and 239 mg/dL and 154 mg/dL in assay [1] (timepoint 1 hours); 154 mg/dL and 183 mg/dL and 219 mg/dL and 124 mg/dL and 111 mg/dL in assay [1] (timepoint 2 hours); 118 mg/dL and 93 mg/dL and 155 mg/dL and 101 mg/dL and 80 mg/dL in assay [1] (timepoint 4 hours). Further, the “Blood glucose levels raw data” value in assay [2] (individual ob/ob mice, OGTT, metformin 450 mg/kg, hydrochloride) is 265 mg/dL and 248 mg/dL and 183 mg/dL and 120 mg/dL and 166 mg/dL. The “Mean blood glucose level” value in assay [1] (timepoint 0 hours) was 199.4 mg/dL; in assay [1] (timepoint 0.25 hours), 353.6**** mg/dl; in assay [1] (timepoint 0.5 hours), 390.2*** mg/dl; in assay [1] (timepoint 1 hours) it was 317.6 mg/dL; in assay [1] (timepoint 2 hours), 158.2 mg/dL; in assay [1] (timepoint 4 hours) it was 109.4 mg/dL. For the same compound, the “Mean blood glucose level” value in assay [2] (ob/ob mice OGTT Day 3, metformin hydrochloride 450 mg/kg QD PO) came out at 196.4 mg/dL.

Consider `NC(=O)CC[C@H](N)C(=O)O` [glutamine, L-Glutamine], for which the “MCP1 expression relative to Control, Mean” value in the assay with Human CCL2 (MCP-1) (Donor 1, Conc. 749 μM) was 0; with Human CCL2 (MCP-1) (Donor 1, Conc. 3747 μM), −0.8981; with Human CCL2 (MCP-1) (Donor 1, Conc. 11242 μM), −9.001; in the assay with Human CCL2 (MCP-1) (Donor 1, Conc. 22484 μM), −21.8392; in the assay with Human CCL2 (MCP-1) (Donor 2, Conc. 749 μM), 2.84E−14; in the assay on Human CCL2 (MCP-1) (Donor 2, Conc. 3747 μM), −45.0574. Also, the “MCP1 expression relative to Control, Mean” value in the assay with Human CCL2 (MCP-1) (Donor 2, Conc. 11242 μM) was −90.6558; in the assay with Human CCL2 (MCP-1) (Donor 2, Conc. 22484 μM), −138.873. The MCP1/CCL2 secretion result in the assay on Human CCL2 (MCP-1) (primary human hepatocytes from two healthy donors, FFA + TNFα, 24 h) is “significantly decrease”.
